Assay results published in US5030733A, “Hydroxy-, alkoxy- and benzyloxy-substituted phospholipids” (Hoechst-Roussel Pharmaceticals Incorporated, priority 1989, dated 1991).

Test system: phenyl-para-quinone induced writhing
Assay: phenyl-para-quinone (PQW) writhing assay for analgesia
Assay type: in vivo
Conditions: Mus musculus, sc; 50% inhibition of writhing, s.c., mice; read-out: ED50 (subcutaneous dose at which 50% of the phenyl-para-quinone induced writhing is inhibited)
Description: The compounds of the present invention are also useful as analgesic agents due to their ability to alleviate pain in mammals. […] Exptl. Biol. Med., 95, 729 (1957)]. Presented in Table 2 is the analgesic effect of some of the compounds of the invention expressed as either the subcutaneous dose at which 50% of the phenyl-para-quinone induced writhing is inhibited in the animals, i.e., the ED50 value, or as the % decrease in writhing at a give dose.

Compound: CCC(=O)O[C@](Cc1ccccc1)(c1ccccc1)[C@H](C)CN(C)C [Propoxyphene]
- ED50: 3.9 mg/kg
